These results are taken from patent publication US20240398774A1, “METHODS OF TREATING INFLAMMATORY DISEASES WITH A SELECTIVE GLUCOCORTICOID RECEPTOR MODULATOR” (ASTRAZENECA AB, priority 2021, published 2024).

Data set [1] deals with transcription of tyrosine aminotransferase (TAT). Put plainly: TAT transcription in human hepatocytes in vitro. Type of data set: cell-based. Particulars: for upregulation of transcription of tyrosine aminotransferase (TAT): human hepatocytes in vitro.
Data set [2] is described as follows: Continuous Glucose Monitoring (CGM) in type 2 diabetes patients, clinical trial NCT04556760. It is filed as in vivo, human. The procedure:
(§1) Patient population. In clinical trial NCT04556760, eligible patients were 18 to 75 years old. Eligible patients had diagnosis of type 2 diabetes mellitus for 6 months prior to screening, such as HbAlc in the diabetes range or fasting plasma glucose 126-220 mg/dL. Eligible patients were on stable metformin therapy for at least 4 weeks, where no significant dose change (increase or decrease≥500 mg/day) has occurred prior to screening and HbAlc 6%-9.5%, or on dual therapy with metformin in combination with SGLT2i or DPP4i and HbAlc 6%-8%. Participants on dual therapy required 2 weeks wash-out of SGLT2i or DPP4i.
(§2) Study design. This was a randomized, double blind, multi-center, double dummy, and two-way cross-over study. The aim of the study was to compare the effect on glycaemic control and incretin response at equipotent doses of AZD9567 and prednisolone in diabetes patients. The AZD9567 and prednisolone doses were predicted to be equipotent, based on an ex vivo efficacy analysis from previous phase 1 studies. The study consisted of a total of three cohorts. Each cohort was treated for two 72-hour periods in a cross-over design, with a 3-week washout period between treatment periods as illustrated in FIG. 1. The total length of participant engagement (from screening to follow-up) is 79 days.
(§3) Cohort 1 included 27 patients. The patents were randomized in a ratio of 1:1 to receive 72 mg/day (oral suspension) AZD9567 and 40 mg/day prednisolone over two 72 hour periods in a cross over design: 72 mg AZD9567 for 3 consecutive days of each treatment period followed by 40 mg prednisolone for 3 consecutive days of each treatment period [AB sequence group], or 40 mg prednisolone for 3 consecutive days of each treatment period followed by 72 mg AZD9567 for 3 consecutive days of each treatment period [BA sequence group].
Cohort 2 included 8 patients. The patents were randomized in a ratio of 1:1 to receive 40 mg/day (oral suspension) AZD9567 and prednisolone over two 72 hour periods in a cross over design: 40 mg AZD9567 for 3 consecutive days of each treatment period followed by 20 mg prednisolone for 3 consecutive days of each treatment period [AB sequence group] or 20 mg prednisolone for 3 consecutive days of each treatment period followed by 40 mg AZD9567 for 3 consecutive days of each treatment period [BA sequence group].
Cohort 3 included 9 patients. The patents were randomized in a ratio of 1:1 to receive placebo and 5 mg/day prednisolone over two 72 hour periods in a cross over design: placebo for 3 consecutive days of each treatment period followed by 5 mg prednisolone for 3 consecutive days of each treatment period [AB sequence group] or 5 mg prednisolone for 3 consecutive days of each treatment period followed by placebo for 3 consecutive days of each treatment period [BA sequence group]).
CGM includes a normal diet and is reflective of daily glucose control under “real world” conditions. […]

Data set [3] is described as follows: Mixed Meal Tolerance Test (MMTT) in type 2 diabetes patients, clinical trial NCT04556760. It is filed as in vivo, human. To be noted: for MMTT-stimulated insulin secretion / glucagon secretion after MMTT: Cohort 1, Day 4. The procedure:
as §1, §2, §3
MMTT provides a fixed composition of protein, carbohydrates and fat, and is meant to mimic “normal” meal. It generally consists of 30.2 g protein, 19.6 g of fat, 75 g of carbohydrates with 6.6. g of fiber, totaling 612 kCal. It requires a standardized dinner the night before the test, 12 h fasting prior to the test, and standardized breakfast consumed (<30 min) at 7 AM (solid meal) consisting of pre-determined quantities of carbohydrates, proteins and fats. Sampling is done at −15, 10, 20, 30, 60, 75, 120, 180, and 240 min.
The primary endpoint was change in glucose AUC (0-4 h) versus baseline compared to prednisolone following a standardized mixed meal tolerance test (MMTT) on Days −1, 4, 27, and 31. The change from baseline in glucose AUC (0-4 h) was analyzed using a mixed model repeated measures (MMRM) with baseline included as covariate. […]

Data set [4] can be described thus: plasma pharmacokinetics in diabetic patients. It is filed as in vivo, human. Particulars: oral dosing. The procedure: as §2, with “days. […]” for “days.”
A further data set deals with joint inflammation. Put plainly: rat model of joint inflammation. Type of data set: in vivo. To be noted: compared with prednisolone.
In data set [5] the test system is lipopolysaccharide (LPS)-stimulated tumour necrosis factor-α (TNFα) release. Put plainly: ex vivo inhibition of LPS-stimulated TNFα release in human whole blood. Type of data set: cell-based. Particulars: compared with prednisolone.
In data set [6] the test system is hypothalamic-pituitary-adrenal (HPA) axis. Put plainly: morning serum cortisol and adrenocorticotropic hormone in type 2 diabetes patients. Type of data set: in vivo, human. The procedure:
as §2
Cohort 1 included 27 patients. The patents were randomized in a ratio of 1:1 to receive 72 mg/day (oral suspension) AZD9567 and 40 mg/day prednisolone over two 72 hour periods in a cross over design: 72 mg AZD9567 for 3 consecutive days of each treatment period followed by 40 mg prednisolone for 3 consecutive days of each treatment period [AB sequence group], or 40 mg prednisolone for 3 consecutive days of each treatment period followed by 72 mg AZD9567 for 3 consecutive days of each treatment period [BA sequence group]. […]

A short description of data set [7]: safety and clinical outcomes in patients. It is filed as in vivo, human.

For `C[C@]12C=CC(=O)C=C1CC[C@@H]1[C@@H]2[C@@H](O)C[C@@]2(C)[C@H]1CC[C@]2(O)C(=O)CO` [prednisolone, reference compound], the “upregulation of transcription of tyrosine aminotransferase (TAT)” value in data set [1] was “upregulation”. In addition, in data set [2] (Cohort 3: 5 mg/day prednisolone vs placebo), the “differentiation on glycaemic control vs placebo on CGM” value was “No differentiation”. In data set [3], the MMTT-stimulated insulin secretion result is recorded as “lower” and the “glucagon secretion after MMTT” value is “increased”. Moreover, the “systemic exposure in diabetic patients as compared to healthy volunteers in phase 1 study” value in data set [4] is “higher”.

As to `CC(C)[C@H](NC(=O)C(C)(F)F)[C@H](Oc1ccc2c(cnn2-c2ccc(=O)n(C)c2)c1)c1ccccc1` [AZD9567, 2,2-difluoro-N-[(1R,2S)-3-methyl-1-[1-(1-methyl-6-oxopyridin-3-yl)indazol-5-yl]oxy-1-phenylbutan-2-yl]propanamide], the “anti-inflammatory effects in vivo in a rat model of joint inflammation” value with joint inflammation is given as “similar”. Moreover, the “inhibition of LPS-stimulated TNFα release” value in data set [5] was “similar”. In addition, the “effect on prednisolone-induced upregulation of TAT transcription” value in data set [1] (coadministered with prednisolone in primary human hepatocytes) is on record as “dose-dependently reduces”. Further, the “upregulation of transcription of tyrosine aminotransferase (TAT)” value in data set [1] is recorded as “does not upregulate”. Moreover, the “increase in mean daily glucose relative to glycaemic targets for type 2 diabetes patients (70-180 mg/dl)” value in data set [2] (Cohort 1, 72 mg/day) is on record as “within glycaemic targets”. Further, the “HbAlc difference corresponding to mean daily glucose difference between AZD9567 and prednisolone” value in data set [2] (Cohort 1, 48-72 h, based on estimated Average Glucose (eAG) equation) is reported as 0.7%; in data set [2] (Cohort 2, lower dose, based on eAG equation), 0.4%. For the same compound, the “mean daily glucose increase as compared to prednisolone” value in data set [2] (Cohort 1: 72 mg/day AZD9567 vs 40 mg/day prednisolone) is listed as “significantly lower”; in data set [2] (Cohort 2: 40 mg/day AZD9567 vs 20 mg/day prednisolone), “lower”. The “differentiation on glycaemic control versus prednisolone (CGM)” value is “clear and consistent differentiation” in data set [2] (Cohort 1: 72 mg/day AZD9567 vs 40 mg/day prednisolone, 3 days); “lower” in data set [2] (Cohort 2: 40 mg/day AZD9567 vs 20 mg/day prednisolone, relative to Cohort 1). The “observed difference in mean daily glucose (CGM) vs prednisolone” value in data set [2] (at 48-72 hrs, Target Value 1.221 mmol/L, Lower Reference Value 0.599 mmol/L) came out at 1.507 mmol/L. Further, the difference in reduction of glucose AUC0-4h after MMTT (AZD9567 vs prednisolone) in data set [3] (Cohort 1, 24 h after last dose (Day 4), 95CI 0.01, 8.88, p=0.05) was determined as 4.54%. Also, in data set [3], the MMTT-stimulated insulin secretion result was “increased”. For the same compound, the “glucagon secretion after MMTT” value in data set [3] was “unaffected”. For the same compound, the “insulin:glucagon ratio” value in data set [3] (Cohort 1, MMTT, vs prednisolone) is given as “marked improvement”. For the same compound, the “absolute difference in reduction of glucose AUC0-4h after MMTT (AZD9567 vs prednisolone)” value in data set [3] (Cohort 1, 95% CI 9.40, 256.1, p=0.036) amounted to 132.95 mmol·min/L. Also, the “adrenocorticotropic hormone (ACTH) concentrations” value in data set [6] (Cohort 1, change from baseline) was “indicative of preserved hypothalamic-pituitary-adrenal (HPA) axis capacity”. For the same compound, the “cortisol change during treatment” value in data set [6] (Cohort 1, returning to baseline at follow-up) is on record as “marked, target-related, reversible cortisol suppression”. For the same compound, in data set [4], the “elimination half-life in diabetic patients as compared to healthy volunteers in phase 1 study” value is reported as “increased”. Besides, the “systemic exposure in diabetic patients as compared to healthy volunteers in phase 1 study” value in data set [4] was “higher”. The “safety concerns following the analysis of Cohort 1” value in data set [7] (Cohort 1, 72 mg/day for 3 days) was “No significant new safety concerns”. The “rate of treatment intensification (dose increase of current oral antidiabetic therapy, or start/addition of insulin) as compared to prednisone” value in data set [7] (diagnosed diabetic patients) is “lower rate”. Also, the “incidence of hospitalization vs prednisone” value in data set [7] (heart failure patients) is given as “lower incidence”. For the same compound, the “incidence of progression to type 2 diabetes mellitus as compared to prednisone” value in data set [7] (population predisposed to type 2 diabetes mellitus) is listed as “lower incidence”.
